In one experiment the target is human P2X2/3 receptor (Homo sapiens (Human), UniProt P56373+Q9UBL9). As to the kind of experiment: Intracellular calcium measurement (FLIPR, Fluo-4) of antagonist activity at human P2X2/3 receptors. Format: cell-based. Conditions: human P2X2/3, FLIPR calcium assay, agonist α,β-Me-ATP; read-out: hP2X2/3 IC50. The procedure, abridged:
(§1)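 Antagonism quantified from peak calcium fluorescence (Fluo-4, FLIPR, 90 sec read) evoked by EC80 α,β-Me-ATP, after a 30 min, 37° C. compound pretreatment in 1% DMSO. Human P2X3- or P2X2/3-expressing cells used; triplicate means fitted for IC50, percent maximal inhibition and Hill coefficient.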
(In general: A change in cytosolic calcium serves as a functional read-out for many receptors and channels.)

The target in the next experiment is human P2X3 receptor (Homo sapiens (Human), UniProt P56373). Nature of the experiment: Intracellular calcium measurement (FLIPR, Fluo-4) of antagonist activity at human P2X3 receptors. Format: cell-based. Conditions: human P2X3, FLIPR calcium assay, agonist α,β-Me-ATP; read-out: hP2X3 IC50. The procedure, abridged: as §1
Sequence of human P2X3 receptor (P56373 whole entry): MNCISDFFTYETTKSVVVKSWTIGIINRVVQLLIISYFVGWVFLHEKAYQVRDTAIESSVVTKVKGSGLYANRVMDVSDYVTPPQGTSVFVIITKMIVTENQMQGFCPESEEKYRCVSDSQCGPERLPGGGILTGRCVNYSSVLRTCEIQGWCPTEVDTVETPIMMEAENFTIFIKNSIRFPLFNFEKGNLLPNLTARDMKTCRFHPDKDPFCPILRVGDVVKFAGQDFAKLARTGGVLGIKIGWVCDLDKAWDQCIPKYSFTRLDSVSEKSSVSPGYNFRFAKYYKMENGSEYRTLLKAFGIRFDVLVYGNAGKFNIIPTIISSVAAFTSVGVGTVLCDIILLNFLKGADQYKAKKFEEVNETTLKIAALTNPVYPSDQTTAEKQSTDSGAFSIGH

Sequence of human P2X2/3 receptor (P56373 whole entry): as above
Sequence of human P2X2/3 receptor (Q9UBL9 whole entry): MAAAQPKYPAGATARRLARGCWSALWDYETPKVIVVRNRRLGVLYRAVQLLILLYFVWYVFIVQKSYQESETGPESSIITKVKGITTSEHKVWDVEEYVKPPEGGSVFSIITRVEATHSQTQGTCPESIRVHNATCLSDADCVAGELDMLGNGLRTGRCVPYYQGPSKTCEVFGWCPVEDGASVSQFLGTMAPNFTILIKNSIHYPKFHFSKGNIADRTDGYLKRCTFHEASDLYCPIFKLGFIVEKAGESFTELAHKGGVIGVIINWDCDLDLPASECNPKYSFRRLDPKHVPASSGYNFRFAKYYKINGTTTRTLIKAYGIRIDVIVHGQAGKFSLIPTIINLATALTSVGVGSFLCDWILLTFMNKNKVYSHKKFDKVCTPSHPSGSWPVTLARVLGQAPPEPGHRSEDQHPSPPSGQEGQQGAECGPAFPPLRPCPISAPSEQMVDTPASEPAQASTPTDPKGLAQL

In the case of `Cc1cnc([C@@H](C)NC(=O)c2cc(OC[C@H]3CCOC3)cc(-c3ncc(C)s3)c2)cn1` [Example 68, N-[(1R)-1-(5-Methylpyrazin-2-yl)ethyl]-3-(5-methyl-1,3-thiazol-2-yl)-5-[(3S)-tetrahydrofuran-3-ylmethoxy]benzamide], the IC50 was found to be 1620 nM at human P2X2/3 receptor and 44 nM at human P2X3 receptor.
In the same order, the values of `Cc1cnc(-c2cc(OC[C@H]3CCOC3)cc(C(=O)N[C@H](C)c3cnc(C(F)(F)F)nc3)c2)s1` [Example 70, 3-(5-Methyl-1,3-thiazol-2-yl)-5-[(3S)-tetrahydrofuran-3-ylmethoxy]-N-[(1R)-1-[2-(trifluoromethyl)pyrimidin-5-yl]ethyl]benzamide] are 78 nM and 3 nM.
On to `Cc1ccc([C@@H](C)NC(=O)c2cc(OC[C@H]3CCOC3)cc(-c3ncc(C)s3)c2)nn1` [Example 71, N-[(1R)-1-(6-Methylpyridazin-3-yl)ethyl]-3-(5-methyl-1,3-thiazol-2-yl)-5-[(3S)-tetrahydrofuran-3-ylmethoxy]benzamide], for which the IC50 is 315 nM on human P2X2/3 receptor and 15 nM at human P2X3 receptor.
Turning to `Cc1cnc(-c2cc(OC[C@H]3CCOC3)cc(C(=O)N[C@H](C)c3ccc(C(F)(F)F)nn3)c2)s1` [Example 72, 3-(5-Methyl-1,3-thiazol-2-yl)-5-[(3S)-tetrahydrofuran-3-ylmethoxy]-N-[(1R)-1-[6-(trifluoromethyl)pyridazin-3-yl]ethyl]benzamide], the IC50 on human P2X2/3 receptor was found to be 330 nM; on human P2X3 receptor, 11 nM.
On to `Cc1cnc(-c2cc(OC[C@@H]3CCOC3)cc(C(=O)N[C@H](C)c3cnc(C(F)(F)F)nc3)c2)s1` [Example 73, 3-(5-Methyl-1,3-thiazol-2-yl)-5-[(3R)-tetrahydrofuran-3-ylmethoxy]-N-[(1R)-1-[2-(trifluoromethyl)pyrimidin-5-yl]ethyl]benzamide], for which the results for the IC50 at human P2X2/3 receptor and on human P2X3 receptor were 101 nM and 4 nM, respectively.
On the same counts, the results for `Cc1cnc([C@@H](C)NC(=O)c2cc(OC[C@@H]3CCOC3)cc(-c3ncc(C)s3)c2)cn1` [Example 74, N-[(1R)-1-(5-Methylpyrazin-2-yl)ethyl]-3-(5-methyl-1,3-thiazol-2-yl)-5-[(3R)-tetrahydrofuran-3-ylmethoxy]benzamide] are 1110 nM and 14 nM.
On the same counts, the results for `Cc1ccc(CNC(=O)c2cc(OC[C@@H]3CCOC3)cc(-c3ncc(C)s3)c2)nn1` [Example 75, N-[(6-Methylpyridazin-3-yl)methyl]-3-(5-methyl-1,3-thiazol-2-yl)-5-[(3R)-tetrahydrofuran-3-ylmethoxy]benzamide] are 6640 nM and 38 nM.
On to `Cc1cnc(CNC(=O)c2cc(OC[C@@H]3CCOC3)cc(-c3ncc(C)s3)c2)cn1` [Example 76, N-[(5-Methylpyrazin-2-yl)methyl]-3-(5-methyl-1,3-thiazol-2-yl)-5-[(3R)-tetrahydrofuran-3-ylmethoxy]benzamide], for which the IC50 on human P2X2/3 receptor worked out at 5790 nM; at human P2X3 receptor, 201 nM.
As for `Cc1ccc([C@@H](C)NC(=O)c2cc(OC[C@@H]3CCOC3)cc(-c3ncc(C)s3)c2)nn1` [Example 77, N-[(1R)-1-(6-Methylpyridazin-3-yl)ethyl]-3-(5-methyl-1,3-thiazol-2-yl)-5-[(3R)-tetrahydrofuran-3-ylmethoxy]benzomide], the IC50 on human P2X2/3 receptor was found to be 183 nM; at human P2X3 receptor, 10 nM.
Regarding `Cc1cnc(-c2cc(OC[C@@H]3CCOC3)cc(C(=O)NC(C)c3ncc(Cl)cc3F)c2)s1` (stereo partly drawn) [Example 78, N-[1-(5-Chloro-3-fluoropyridin-2-yl)ethyl]-3-(5-methyl-1,3-thiazol-2-yl)-5-[(3R)-tetrahydrofuran-3-ylmethoxy]benzamide], the IC50 at human P2X2/3 receptor stood at 83 nM; on human P2X3 receptor it was 6 nM.
Turning to `Cc1cnc(-c2cc(OC[C@@H]3CCOC3)cc(C(=O)N[C@H](C)c3ccc(C(F)(F)F)nn3)c2)s1` [Example 79, 3-(5-Methyl-1,3-thiazol-2-yl)-5-[(3R)-tetrahydrofuran-3-ylmethoxy]-N-[(1R)-1-[6-(trifluoromethyl)pyridazin-3-yl]ethyl]benzamide], the IC50 was found to be 413 nM on human P2X2/3 receptor and 9 nM at human P2X3 receptor.
Turning to `Cc1cnc(-c2cc(OC3CCOCC3)cc(C(=O)NC(C)c3ncc(F)cc3Cl)c2)s1` (stereo not drawn) [Example 80, N-[1-(3-Chloro-5-fluoropyridin-2-yl)ethyl]-3-(5-methyl-1,3-thiazol-2-yl)-5-(tetrahydro-2H-pyran-4-yloxy)benzamide], the IC50 at human P2X2/3 receptor worked out at 339 nM; on human P2X3 receptor, 12 nM.
Turning to `Cc1cnc(-c2cc(OC3CCOCC3)cc(C(=O)NC(C)c3ncc(Cl)cc3F)c2)s1` (stereo not drawn) [Example 81, N-[1-(5-Chloro-3-fluoropyridin-2-yl)ethyl]-3-(5-methyl-1,3-thiazol-2-yl)-5-(tetrahydro-2H-pyran-4-yloxy)benzamide], the figures for the IC50 at human P2X2/3 receptor and at human P2X3 receptor were 34 nM and 3 nM, respectively.
As for `Cc1ccc(CNC(=O)c2cc(OC3CCOCC3)cc(-c3ncc(C)s3)c2)nn1` [Example 82, N-[(6-Methylpyridazin-3-yl)methyl]-3-(5-methyl-1,3-thiazol-2-yl)-5-(tetrahydro-2H-pyran-4-yloxy)benzamide], the IC50 on human P2X2/3 receptor turned out to be 380 nM; at human P2X3 receptor, 28 nM.
With `Cc1cnc(CNC(=O)c2cc(OC3CCOCC3)cc(-c3ncc(C)s3)c2)cn1` [Example 83, N-[(5-Methylpyrazin-2-yl)methyl]-3-(5-methyl-1,3-thiazol-2-yl)-5-(tetrahydro-2H-pyran-4-yloxy)benzamide], the IC50 on human P2X2/3 receptor amounted to 1160 nM; on human P2X3 receptor, 125 nM.
For the molecule `Cc1cnc(-c2cc(OC3CCOCC3)cc(C(=O)N[C@H](C)c3cnc(C(F)(F)F)nc3)c2)s1` [Example 85, 3-(5-Methyl-1,3-thiazol-2-yl)-5-(tetrahydro-2H-pyran-4-yloxy)-N-{(1R)-1-[2-(trifluoromethyl)pyrimidin-5-yl]ethyl}benzamide], the values for the IC50 at human P2X2/3 receptor and at human P2X3 receptor were 36 nM and 10 nM, respectively.
On the same counts, the results for `COc1ccc([C@@H](C)NC(=O)c2cc(OC3CCOCC3)cc(-c3ncc(C)s3)c2)cn1` [Example 86, N-[(1R)-1-(6-Methoxypyridin-3-yl)ethyl]-3-(5-methyl-1,3-thiazol-2-yl)-5-(tetrahydro-2H-pyran-4-yloxy)benzamide] are 144 nM and 12 nM.
On the same counts, the results for `Cc1ccc([C@@H](C)NC(=O)c2cc(OC3CCOCC3)cc(-c3ncc(C)s3)c2)nn1` [Example 87, N-[(1R)-1-(6-Methylpyridazin-3-yl)ethyl]-3-(5-methyl-1,3-thiazol-2-yl)-5-(tetrahydro-2H-pyran-4-yloxy)benzamide] are 119 nM and 15 nM.
In the case of `COc1ccc(CNC(=O)c2cc(OC3CCOCC3)cc(-c3ncc(C)s3)c2)nn1` [Example 88, N-[(6-Methoxypyridazin-3-yl)methyl]-3-(5-methyl-1,3-thiazol-2-yl)-5-(tetrahydro-2H-pyran-4-yloxy)benzamide], the IC50 at human P2X2/3 receptor came to 217 nM; at human P2X3 receptor, 30 nM.
As to `CC[C@@H](NC(=O)c1cc(OC2CCOCC2)cc(-c2ncc(C)s2)c1)c1cnc(C(F)(F)F)nc1` [Example 90, 3-(5-Methyl-1,3-thiazol-2-yl)-5-(tetrahydro-2H-pyran-4-yloxy)-N-{(1R)-1-[2-(trifluoromethyl)pyrimidin-5-yl]propyl}benzamide], the IC50 on human P2X2/3 receptor amounted to 710 nM; on human P2X3 receptor it was 111 nM.
As to `Cc1ccc([C@@H](C)NC(=O)c2cc(OC3CCOCC3)cc(-c3ncc(C)s3)c2)cn1` [Example 91, N-[(1R)-1-(6-Methylpyridin-3-yl)ethyl]-3-(5-methyl-1,3-thiazol-2-yl)-5-(tetrahydro-2H-pyran-4-yloxy)benzamide], the IC50 is 133 nM on human P2X2/3 receptor and 19 nM at human P2X3 receptor.
On the same counts, the results for `Cc1cnc(-c2cc(OC3CCOCC3)cc(C(=O)N[C@H](C)c3nnc(C)s3)c2)s1` [Example 92, N-[(1R)-1-(5-Methyl-1,3,4-thiadiazol-2-yl)ethyl]-3-(5-methyl-1,3-thiazol-2-yl)-5-(tetrahydro-2H-pyran-4-yloxy)benzamide] are 317 nM and 24 nM.
In the same order, the values of `Cc1ccc(CNC(=O)c2cc(OCC3CCOCC3)cc(-c3ncc(C)s3)c2)nn1` [Example 93, N-[(6-Methylpyridazin-3-yl)methyl]-3-(5-methyl-1,3-thiazol-2-yl)-5-(tetrahydro-2H-pyran-4-ylmethoxy)benzamide] are 385 nM and 8 nM.
As for `Cc1cnc([C@@H](C)NC(=O)c2cc(OCC3CCOCC3)cc(-c3ncc(C)s3)c2)cn1` [Example 94, N-[(1R)-1-(5-Methylpyrazin-2-yl)ethyl]-3-(5-methyl-1,3-thiazol-2-yl)-5-(tetrahydro-2H-pyran-4-ylmethoxy)benzamide], the results for the IC50 on human P2X2/3 receptor and at human P2X3 receptor were 132 nM and 7 nM, respectively.
With `Cc1cnc(-c2cc(OCC3CCOCC3)cc(C(=O)NC(C)c3ncc(Cl)cc3F)c2)s1` (stereo not drawn) [Example 95, N-[1-(5-Chloro-3-fluoropyridin-2-yl)ethyl]-3-(5-methyl-1,3-thiazol-2-yl)-5-(tetrahydro-2H-pyran--4-ylmethoxy)benzamide], the IC50 came to 129 nM on human P2X2/3 receptor and 2 nM on human P2X3 receptor.
Take `Cc1cnc(-c2cc(OCC3CCOCC3)cc(C(=O)NC(C)c3ncc(F)cc3Cl)c2)s1` (stereo not drawn) [Example 96, N-[1-(3-Chloro-5-fluoropyridin-2-yl)ethyl]-3-(5-methyl-1,3-thiazol-2-yl)-5-(tetrahydro-2H-pyran-4-ylmethoxy)benzamide]: the figures for the IC50 on human P2X2/3 receptor and on human P2X3 receptor were 1080 nM and 18 nM, respectively.
In the same order, the values of `Cc1cnc(CNC(=O)c2cc(OCC3CCOCC3)cc(-c3ncc(C)s3)c2)cn1` [Example 97, N-[(5-Methylpyrazin-2-yl)methyl]-3-(5-methyl-1,3-thiazol-2-yl)-5-(tetrahydro-2H-pyran-4-ylmethoxy)benzamide] are 1690 nM and 15 nM.
